Reference: patent US9381169B2, “Pharmaceutical composition and use of the pharmaceutical composition for the treatment, prophylaxis or prevention of neoplastic diseases in humans and animals” (UNIVERSIDADE BANDEIRANTE DE SÃO PAULO—ACADEMIA PAULISTA …, priority 2009, dated 2016)
Where two headings read alike, the source gives them in different places.

Key:
[1] = cited from earlier work
[2] = tested on: B16F10 melanoma cells; assay: Cell cycle phases and apoptosis of dorsal tumor cells (propidium iodide, FACSCalibur); assay type: in vivo, mice
Procedure: The cells were then frozen and kept in liquid nitrogen. After incubation with propidium iodide, the analysis was performed on a FACSCalibur cytometer. The results were expressed as mean percentage of cells in different phases of the cell cycle, debris and necrosis, apoptosis (sub-G1), quiescent non-proliferating cells G0/G1, S phase—synthesis of genetic material and G2/M at the beginning of cell division.

[3] = Hematologic evaluation (erythrocytes, leukocytes, platelets), B16F10 melanoma; assay type: in vivo, mice; conditions: for platelet counts during treatment compared to the control group: B16F10 melanoma mice
Procedure: (§1) The compounds were administered separately.
The blood of animals with B16F10 melanoma tumor was harvested in the 6th and 14th day during treatment with the compound DM-1 and prior to the inoculation of B16F10 cells. In the charts, collections for the day 6 were named 1A, while those relating to day 14 were named 2A. After implantation, tumor blood were collected in the second, sixth and tenth days of treatment (after treatment with DM-1) in all groups of animals, and these collections were named 1B and 2B and 3B, respectively.

[4] = tested on: B16F10 melanoma; assay: Survival rate, B16F10 melanoma; assay type: in vivo, mice
Procedure: (§2) Groups of mice of the C57Bl/6J strain were injected subcutaneously dorsally with 5×10^4 B16F10 melanoma tumor cells under sterile conditions. The animals were observed every 72 hours and tumor growth monitored until the average diameter of […].
(§3) Paclitaxel-treated group—10 animals with B16F10 melanoma tumor, which after the 11th day of tumor implantation, received intraperitoneal doses of paclitaxel chemotherapy in […] of treatment;
(§4) After 14 days, the animals received implantation of B16F10 melanoma cells and received no treatment until the end of the experiment.
(§5) Paclitaxel was administered at a concentration of 15 μM/Kg, via intraperitoneal slow infusion, the treatment regimens described in the literature on days 1, 5 and 10, after the 7th day of tumor implantation. The compounds were administered separately.

[5] = tested on: Ehrlich tumor; conditions: Balb-c mice, intraperitoneal from day 7 after implant, DM-1 1.6 nM/kg daily, paclitaxel 15 μM/Kg, etoposide 3.73 mM/kg on days 1, 5, 10
Source text: (§7) We used 50 mice of the Balb-c strain, females and males, with approximately 25 g, aged approximately 6 to 8 weeks, with diet and water ad libitum, that were divided into 5 groups:
CONTROL GROUP—10 animals implanted with tumor, which after 7 days of application, received daily intraperitoneal doses of saline 0.9%;
Paclitaxel-treated group—10 animals implanted with tumor, which after 7 days of application, received intraperitoneal doses of paclitaxel chemotherapy in the 1st, 5th and 10th days of treatment;
Etoposide-treated group—10 animals implanted with tumor, which after 7 days of application, received intraperitoneal doses of etoposide chemotherapy in the 1st, 5th and 10th days of treatment; […]
Tumor growth in mice was measured by the dimensions on the longitudinal and transverse abdominal cavity, with the aid of a digital caliper. […] The mean area (A), mass (M) and tumor burden (C) were calculated using the following equations, respectively: A=nπ2; L2×T=M/2 (where L is the measured longitudinal and transverse extent of the T waist circumference).

[6] = tested on: Ehrlich tumor; assay: Number of renal and splenic metastases, Ehrlich tumor; assay type: in vivo; conditions: Balb-c mice
Procedure: As an experimental model of mammary adenocarcinoma, we used the Ehrlich tumor in mice of the Balb-c strain, with approximately 2 months of age and weighing between 20 to 25 grams. The maintenance of the tumor in vivo was performed by intraperitoneal administration of 10^7 cells every seven days.
Paclitaxel and etoposide were administered at concentrations of 15 μM/Kg and 3.73 mM/kg, respectively, by intraperitoneal slow infusion in treatment regimens described in the literature on days 1, 5 and 10, after the 7th day of tumor implantation. The compounds were administered separately.

[7] = tested on: B16F10 melanoma; assay: Tumor growth (dorsal tumor area), B16F10 melanoma; assay type: in vivo; conditions: C57Bl/6J mice
Procedure: as §2
Control group—10 animals with B16F10 melanoma tumor, which after the 11th day of tumor implantation, received daily intraperitoneal doses of saline 0.9%;
as §3, §4, §5

[8] = tested on: polychromatic erythrocytes; conditions: Wistar rats; for Observed frequencies of polychromatic erythrocytes with micronuclei in 1000 polychromatic erythrocytes: single intraperitoneal dose, cyclophosphamide 190 μM/Kg, DM-1 8 hours before cyclophosphamide
Source text: We used animals of the Wistar strain, males and females, with approximately 90 days old and weighing between 250 and 300 grams, maintained with water and food “ad libitum” and in accordance with the rules and procedures regarding the use of laboratory animals. The animals were divided into four groups:
Negative control group—6 animals treated with a single dose of 0.7% saline solution.
Group treated with cyclophosphamide (positive control)—6 animals treated with a single dose of cyclophosphamide chemotherapy.
In all tests was administered 1 mL of the compound of interest intraperitoneally. […] Cyclophosphamide was administered at a concentration of 190 μM/Kg. The compounds were administered separately. At the end of the experiment (24 and 48 hours), animals were euthanized by deep general anesthesia induced by a lethal dose of sodium tiopentabarbital (CRMV, 2008).
This study allowed us to analyze the action of mutagenic compounds under study. Mutagenic compounds when administered in experimental animals cause changes in chromatin that can be identified by the formation of a mass within the nucleus called the micronucleus. The emergence of this mass is quantified and analyzed for their proportion to the capacity of a given drug or not to be mutagenic.
For micronucleus study we used the technique reported by Ribeiro et al. (Environmental Mutagenesis. Ulbra Publisher. Canoas: 1st edition, 2003.) For the staining of slides was used the technique described by Rabello-Gay et al. Apud SILVA, J. C. of; SILVA, S. of C. Evaluation of possible genotoxic effects of Gergilim (Sesamum indicum L., 2003).
In the test, the effect of the chemical agent is observed in anucleate polychromatic erythrocytes (ECPs), which have relatively short life span, so that it contains any micronucleus that was generated as a result of recent chromosomal damage. For the staining of slides was used Giemsa stain diluted in phosphate buffer at pH 6.8, in the ratio 1:10, for a period of 15 minutes. After staining, the slides were washed in distilled water to remove excess dye. To read the slides used an optical microscope and perform counting and analysis of 1000 polychromatic erythrocytes per slide, considering the frequency of micronucleated polychromatic erythrocytes.
The analysis was performed with cells increases 40× and 100× for the visualization of general morphology of the smears negative control group (FIG. 22), the groups treated with the compound DM1 and their polychromatic erythrocytes (FIGS. 23, 24 and 25). 1000 cells were analyzed per animal for the groups treated with DM1, negative control and cyclophosphamide for a total of 40,000 cells. The photodocumentation polychromatic erythrocytes was obtained by digital AVsoft. The group treated with cyclophosphamide was the positive control of the technique (FIG. 27).
The results were subjected to statistical analysis, the ANOVA test of variance followed by Tukey-Kramer multiple comparisons (parametric data) and the significance level of 5%, i.e., the probability P<0.05).

[9] = tested on: B16F10 melanoma; assay: Internal metastases, B16F10 melanoma; assay type: in vivo, mice
Procedure: as §2, §3
(§6) Group pre-treated with the DM-1 compound prior to the implant of B16F10 melanoma cells—10 animals were treated with daily doses of the compound DM-1 for 14 days before implantation of tumor cells. After 14 days, the animals received implantation of B16F10 melanoma cells and received no treatment until the end of the experiment.
as §6, with “cells and post-treated with DM-1 compound—10” for “cells—10”, “continued to receive daily” for “received no”, “with” for “until”, “compound DM-1 for another 14 days.” for “end of the experiment.”
as §1

[10] = tested on: Ehrlich tumor; assay: Macroscopic spleen volume, Ehrlich tumor; conditions: all experimental protocols with DM-1
Procedure: as §7
The spleens of animals from all experimental groups were analyzed for the display of nodes and metastases.

[11] = tested on: tumor cell lines; conditions: PCT/BR2007/000175 and PI0602640-0; cited from earlier work
[12] = group pre and post treated with DM-1

In the case of `O=S(=O)(O)CCS` [Mesna], the antimutagenic action ([1]; in combination with paclitaxel) is listed as “moderate”.
With `CC(=O)O[C@H]1C(=O)[C@@]2(C)[C@H]([C@H](OC(=O)c3ccccc3)[C@]3(O)C[C@H](OC(=O)[C@H](O)[C@@H](NC(=O)c4ccccc4)c4ccccc4)C(C)=C1C3(C)C)[C@]1(OC(C)=O)CO[C@@H]1C[C@@H]2O` [paclitaxel, reference compound] the “proportion of cells killed by necrosis” value ([2]; compared to control and DM-1 groups) was “significant increase”, the “platelet counts during treatment compared to the control group” value [3] was “increase” and the “increase of survival rate” value ([4]; treated after tumor implantation) was “no significant changes”. For the same compound, the “median values of tumor area” value [5] was 11.4±1 cm^2, the “decrease of metastases in kidney” value [6] was 30% and the “decrease of metastases in spleen” value [6] was 50%. It also gave a tumor area ([7]; B16F10, treated after tumor implantation, paclitaxel 15 μM/Kg i.p., DM-1 0.83 nM/kg daily) of 9.4 cm^2.
For `C[C@@H](CN1CC(=O)NC(=O)C1)N1CC(=O)NC(=O)C1` [Dexrazoxane], the “rates of cell damage” value ([1]; as co-adjuvant: dexrazoxane with etoposide, amifostine with cisplatin or paclitaxel) is listed as over 45%.
For `O=P1(N(CCCl)CCCl)NCCCO1` (centres unmarked) [Cyclophosphamide, cyclophosphamide], the “cells with micronuclei found in the group” value ([8]; bone marrow smears) was “more than 200 cells”, the “Observed frequencies of polychromatic erythrocytes with micronuclei in 1000 polychromatic erythrocytes” value (“Observed frequencies” for short) ([8]; DM-1 140 μM/Kg, 24 Hours) was 36.5 ± 1.0 and the “Observed frequencies” value ([8]; DM-1 140 μM/Kg, 48 Hours) was 35.5 ± 1.0. The “frequency of micronucleated polychromatic erythrocytes in 1000 cells” value ([8]; positive control group) was 36 /1000.
For `COc1cc(C=CC(=O)C=Cc2ccc(O)c(OC)c2)ccc1[O-].[Na+]` [DM-1, sodium 4-[5-(4-hydroxy-3-methoxy-phenyl)-3-oxo-penta-1,4-dienil]-2-methoxy-phenolate], the “percentage of cells in sub-G1 (apoptotic) phase” value [2, 12] was “increased significantly”, the “percentage of cells in sub-G1 (apoptotic) phase” value ([2]; group pre-treated with DM-1) was “increased significantly” and the “proportion of quiescent cells in G0/G1 phase” value ([2]; protocols of treatment with DM-1) was “reduce”. For the same compound, the “formation of lung and liver metastases” value [9, 12] was “inhibition”, the “formation of lung and liver metastases” value ([9]; group pre-treated with DM-1) was “inhibition” and the “platelet counts during treatment compared to the control group” value [3] was “significant reductions”. For the same compound, the “erythrocytes (anemia)” value ([3]; mice treated with DM-1) was “does not induce anemia”, the “increase of survival rate” value ([4]; group pre- and post-treated with DM-1) was 30% and the “increase of survival rate” value ([4]; group pre-treated with DM-1) was 50%. The “immunosuppression in animals with Ehrlich ascites tumor” value [10] was “suppressed”, the “Observed frequencies” value ([8]; DM-1 140 μM/Kg, 24 Hours) was 2.4 ± 0.5 and the “Observed frequencies” value ([8]; DM-1 140 μM/Kg, 48 Hours) was 2.2 ± 0.5. The “micronuclei in bone marrow smears (in words)” value ([8]; DM-1 140 μM/Kg, alone or 8 hours before cyclophosphamide 190 μM/Kg) was “not found significant changes”, the antiproliferative activity [11] was “significant” and the “dorsal tumor area, average values” ([7]; pre and post treated with DM-1 0.83 nM/kg daily, 14 days before and 14 days after B16F10 implant) was 7.3±1.3 cm^2. For the same compound, the “dorsal tumor area, average values” ([7]; pretreated with DM-1 0.83 nM/kg daily for 14 days before B16F10 implant, no later treatment) was 6.5±1.7 cm^2.
With `COc1cc([C@@H]2c3cc4c(cc3[C@@H](O[C@@H]3O[C@@H]5CO[C@@H](C)O[C@H]5[C@H](O)[C@H]3O)[C@H]3COC(=O)[C@H]23)OCO4)cc(OC)c1O` [etoposide] the “median values of tumor area” value [5] was 8.6±1.0 cm^2, the “decrease of metastases in kidney” value [6] was 10% and the “decrease of metastases in spleen” value [6] was 30%.
